Measured values from PubChem BioAssay AID248 (DTP/NCI, 2004).
Values joined by “and” are separate entries in the source; they are usually repeats but may differ in a detail not shown here. Equal values may be shown once. Inconclusive results and toxic doses are left out. Cut-off read from the data, not from the text of the source: active = T/C of 150% or more; inactive = T/C below 125%.

Test system: L1210 leukemia ip in BDF1 mice, survival T/C
Test: NCI In Vivo Anticancer Drug Screen. Data for tumor model L1210 Leukemia (intraperitoneal) in B6D2F1 (BDF1) mice
Details: endpoint: mean survival time, higher = longer survival
Description: The antitumor activity of compounds was measured in mice bearing transplantable tumors. Survival or tumor size were measured and the results are expressed as the measurement made in the treated group (T) divided by the measurement made in the vehicle treated control group (C). The tumor model used in this assay is L1210 Leukemia (intraperitoneal) in B6D2F1 (BDF1) mice

[1] = dose: 100.0 mg/kg/injection, schedule: Q04DX003 (ip), vehicle: saline
[2] = dose: 200.0 mg/kg/injection, schedule: Q04DX003 (ip), vehicle: saline
[3] = dose: 100.0 mg/kg/injection, schedule: Q01DX009 (ip), vehicle: Klucel (hydroxypropylcellulose) (HPC)
[4] = dose: 200.0 mg/kg/injection, schedule: Q01DX009 (ip), vehicle: Klucel (hydroxypropylcellulose) (HPC)
[5] = dose: 400.0 mg/kg/injection, schedule: Q01DX009 (ip), vehicle: Klucel (hydroxypropylcellulose) (HPC)
[6] = dose: 100.0 mg/kg/injection, schedule: Q04DX002 (ip), vehicle: Klucel (hydroxypropylcellulose) (HPC)
[7] = dose: 200.0 mg/kg/injection, schedule: Q04DX002 (ip), vehicle: Klucel (hydroxypropylcellulose) (HPC)
[8] = dose: 400.0 mg/kg/injection, schedule: Q04DX002 (ip), vehicle: Klucel (hydroxypropylcellulose) (HPC)
[9] = dose: 400.0 mg/kg/injection, schedule: Q01DX001 (ip), vehicle: carboxymethylcellulose (CMC)
[10] = dose: 50.0 mg/kg/injection, schedule: Q01DX009 (ip), vehicle: saline with Tween-80
[11] = dose: 100.0 mg/kg/injection, schedule: Q01DX009 (ip), vehicle: saline with Tween-80
[12] = dose: 100.0 mg/kg/injection, schedule: Q04DX003 (ip), vehicle: saline with Tween-80
[13] = dose: 200.0 mg/kg/injection, schedule: Q01DX009 (ip), vehicle: saline with Tween-80
[14] = dose: 200.0 mg/kg/injection, schedule: Q04DX003 (ip), vehicle: saline with Tween-80
[15] = dose: 400.0 mg/kg/injection, schedule: Q04DX003 (ip), vehicle: saline with Tween-80
[16] = dose: 50.0 mg/kg/injection, schedule: Q01DX001 (ip), vehicle: saline
[17] = dose: 100.0 mg/kg/injection, schedule: Q01DX001 (ip), vehicle: saline
[18] = dose: 200.0 mg/kg/injection, schedule: Q01DX001 (ip), vehicle: saline
[19] = dose: 400.0 mg/kg/injection, schedule: Q01DX001 (ip), vehicle: saline
[20] = dose: 100.0 mg/kg/injection, schedule: Q01DX001 (ip), vehicle: saline with Tween-80
[21] = dose: 100.0 mg/kg/injection, schedule: Q04DX002 (ip), vehicle: saline with Tween-80
[22] = dose: 200.0 mg/kg/injection, schedule: Q01DX001 (ip), vehicle: saline with Tween-80
[23] = dose: 200.0 mg/kg/injection, schedule: Q04DX002 (ip), vehicle: saline with Tween-80
[24] = dose: 400.0 mg/kg/injection, schedule: Q01DX001 (ip), vehicle: saline with Tween-80
[25] = dose: 400.0 mg/kg/injection, schedule: Q04DX002 (ip), vehicle: saline with Tween-80
[26] = dose: 400.0 mg/kg/injection, schedule: Q04DX003 (ip), vehicle: saline

Measured: T/C

O=C(c1ccccc1)N1CCCCC1
inactive: dose: 100.0 mg/kg/injection, schedule: Q01DX009 (ip), vehicle: saline 95 % of control | [1] 95 % of control | dose: 200.0 mg/kg/injection, schedule: Q01DX009 (ip), vehicle: saline 95 % of control | [2] 94 % of control

CCOc1cc(/C=N/NC(=O)COCC(=O)N/N=C/c2ccc(O)c(OCC)c2)ccc1O
inactive: [3] 88 % of control | [4] 92 % of control | [5] 97 % of control

O=C(Nc1ccc(Cl)cc1)Oc1ccc(C2CCCCC2)cc1
inactive: [6] 100 % of control | [7] 107 % of control | [8] 110 % of control

COc1ccc(-c2ccc([N+](=O)[O-])cc2[N+](=O)[O-])cc1
inactive: dose: 100.0 mg/kg/injection, schedule: Q01DX001 (ip), vehicle: carboxymethylcellulose (CMC) 105 % of control | dose: 200.0 mg/kg/injection, schedule: Q01DX001 (ip), vehicle: carboxymethylcellulose (CMC) 110 % of control | [9] 105 % of control

Cc1ccc(S(=O)(=O)N(C)C)cc1N
inactive: [10] 105 % of control | [11] 98 % of control | [12] 107 % of control | [13] 96 % of control | [14] 97 % of control | [15] 102 % of control

O=[N+]([O-])c1ccc(/C=C/c2ccccc2)c([N+](=O)[O-])c1
inactive: dose: 100.0 mg/kg/injection, schedule: Q04DX003 (ip), vehicle: Klucel (hydroxypropylcellulose) (HPC) 104 % of control | dose: 200.0 mg/kg/injection, schedule: Q04DX003 (ip), vehicle: Klucel (hydroxypropylcellulose) (HPC) 98 % of control | dose: 400.0 mg/kg/injection, schedule: Q04DX003 (ip), vehicle: Klucel (hydroxypropylcellulose) (HPC) 101 % of control

O=C1C(CO)=C[C@@H](O)[C@H]2O[C@@H]12
inactive: dose: 3.0 mg/kg/injection, schedule: Q01DX009 (ip), vehicle: saline 93 % of control | dose: 6.0 mg/kg/injection, schedule: Q01DX009 (ip), vehicle: saline 93 % of control | dose: 12.0 mg/kg/injection, schedule: Q01DX009 (ip), vehicle: saline 95 % of control | dose: 25.0 mg/kg/injection, schedule: Q01DX001 (ip), vehicle: saline 98 % of control | dose: 25.0 mg/kg/injection, schedule: Q01DX009 (ip), vehicle: saline 98 % of control | [16] 121 % of control | dose: 50.0 mg/kg/injection, schedule: Q01DX009 (ip), vehicle: saline 121 % of control | dose: 75.0 mg/kg/injection, schedule: Q01DX009 (ip), vehicle: saline 102 % of control | [17] 103 % of control and 123 % of control | dose: 150.0 mg/kg/injection, schedule: Q01DX009 (ip), vehicle: saline 109 % of control | [18] 106 % of control | [19] 111 % of control

O=C(CNC(=O)c1ccccc1)Oc1c(Cl)c(Cl)c(Cl)c(Cl)c1Cl
inactive: dose: 100.0 mg/kg/injection, schedule: Q01DX009 (ip), vehicle: other 104 % of control | dose: 200.0 mg/kg/injection, schedule: Q01DX009 (ip), vehicle: other 98 % of control | dose: 400.0 mg/kg/injection, schedule: Q01DX009 (ip), vehicle: other 93 % of control

COc1ccccc1/C=C\C(=O)C1COCN1 (configuration not stated)
inactive: dose: 75.0 mg/kg/injection, schedule: Q04DX003 (ip), vehicle: saline 105 % of control | dose: 150.0 mg/kg/injection, schedule: Q04DX003 (ip), vehicle: saline 100 % of control | dose: 300.0 mg/kg/injection, schedule: Q04DX003 (ip), vehicle: saline 102 % of control

CC(Oc1ccccc1)C(=O)NC(=S)Nc1cccc2ccccc12 (configuration not stated)
inactive: [10] 90 % of control and 91 % of control | [20] 108 % of control | [11] 100 % of control and 86 % of control | [21] 108 % of control and 114 % of control | [12] 108 % of control | [22] 95 % of control | [23] 93 % of control and 105 % of control | [14] 92 % of control | [24] 93 % of control | [25] 93 % of control and 88 % of control | [15] 92 % of control

Clc1ccc(OCc2ccccc2)c(Cl)c1
inactive: [6] 106 % of control | [7] 106 % of control | [8] 95 % of control

COP1(=O)C=C(C)CC1 (configuration not stated)
inactive: [17] 95 % of control | [18] 95 % of control | [19] 95 % of control

OC[CH2][Hg][Cl]
inactive: dose: 1.56 mg/kg/injection, schedule: Q01DX009 (ip), vehicle: saline 94 % of control | dose: 3.13 mg/kg/injection, schedule: Q01DX009 (ip), vehicle: saline 86 % of control

CCc1ccccc1NC(=O)Oc1ccc(SC)cc1
inactive: [20] 102 % of control | [11] 97 % of control and 99 % of control | [21] 93 % of control and 94 % of control | [22] 98 % of control | [13] 97 % of control and 89 % of control | [23] 96 % of control and 97 % of control | [24] 93 % of control | [25] 96 % of control and 107 % of control | [15] 90 % of control

COC1c2c(nc3ccccc3c2C(N)=O)-c2ccccc2C1(C)C (configuration not stated)
inactive: [1] 89 % of control | [2] 103 % of control | [26] 94 % of control

CC(C)(C)COC(=O)C(C)(C)CC(C)(C)C
inactive: [17] 93 % of control | dose: 187.0 mg/kg/injection, schedule: Q01DX001 (ip), vehicle: carboxymethylcellulose (CMC) 92 % of control | [18] 102 % of control | dose: 267.0 mg/kg/injection, schedule: Q01DX001 (ip), vehicle: carboxymethylcellulose (CMC) 97 % of control | [9] 96 % of control | dose: 600.0 mg/kg/injection, schedule: Q01DX001 (ip), vehicle: carboxymethylcellulose (CMC) 96 % of control

COCCNCC1OC(OC)C2OC(C)(C)OC12 (configuration not stated)
inactive: dose: 100.0 mg/kg/injection, schedule: Q01DX005 (ip), vehicle: saline 104 % of control | dose: 200.0 mg/kg/injection, schedule: Q01DX005 (ip), vehicle: saline 102 % of control

COC(=O)C(CSSCC(NC(=O)c1ccccc1)C(=O)OC)NC(=O)c1ccccc1 (configuration not stated)
inactive: [16] 98 % of control | [17] 114 % of control | [18] 97 % of control

CSc1ccccc1C(O)Cc1ccc([N+](=O)[O-])cc1 (configuration not stated)
inactive: [3] 105 % of control | [1] 98 % of control | [4] 93 % of control | [2] 98 % of control | [5] 96 % of control | [26] 95 % of control

COc1cccc2c1C1c3ccccc3C(O)CC1CC2O (configuration not stated)
inactive: dose: 37.5 mg/kg/injection, schedule: Q01DX001 (ip), vehicle: Klucel (hydroxypropylcellulose) (HPC) 89 % of control | dose: 75.0 mg/kg/injection, schedule: Q01DX001 (ip), vehicle: Klucel (hydroxypropylcellulose) (HPC) 104 % of control | dose: 150.0 mg/kg/injection, schedule: Q01DX001 (ip), vehicle: Klucel (hydroxypropylcellulose) (HPC) 91 % of control

NNc1cccc(C(F)(F)F)c1
inactive: dose: 25.0 mg/kg/injection, schedule: Q01DX009 (ip), vehicle: saline with Tween-80 94 % of control | dose: 25.0 mg/kg/injection, schedule: Q04DX003 (ip), vehicle: saline with Tween-80 100 % of control | [10] 96 % of control | dose: 50.0 mg/kg/injection, schedule: Q04DX003 (ip), vehicle: saline with Tween-80 95 % of control | [12] 95 % of control and 98 % of control

N#CSC(C(=O)c1ccccc1)c1ccccc1 (configuration not stated)
inactive: [12] 92 % of control | [14] 91 % of control | [15] 92 % of control
